Results as given in US6809065B2, “Herbicide containing substituted pyrazole derivative as active ingredient” (SDS Biotech K.K., priority 2001, dated 2004).

What was measured:
soybean (Glycine max) [1] = test: Upland field foliage treatment (Test Example 1), crop; assay type: in vivo; settings: foliage treatment 14th day after sowing, 1 kg active ingredient per hectare, evaluated 21st day, lower index = higher safety
Method in brief: (§1)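 Scored on an index 21 days after treatment: a high value on weeds means more herbicidal effect, and a low value on crops means more crop safety. Treatment was a foliar spray of water-diluted wettable powder at 1 kg a.i./ha, applied to plants 14 days after sowing in upland soil.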

[2] = system: wheat (Triticum aestivum); test: as above; assay type: in vivo; settings: foliage treatment 14th day after sowing, 1 kg active ingredient per hectare, evaluated 21st day, lower index = higher safety
Method in brief: as §1

[3] = system: rice (Oryza sative, variety: Koshihikari); test: Paddy field treatment (Test Example 3), crop; assay type: in vivo, Oryza sativa; settings: transplanted rice two-leaf period, water surface treatment 10th day after transplantation, 1 kg active ingredient per hectare, evaluated 21st day, lower index = higher safety
Method in brief: (§2)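 Index scoring of herbicidal effect and rice safety 21 days after treatment. The wettable powder, dosed at 1 kg a.i./ha, was dripped onto flooded pots (4 cm water) 10 days after transplanting two-leaf Koshihikari rice. Weed seeds had been sown into the puddled soil.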

Echinochloa spp. = test: Paddy field treatment (Test Example 3); assay type: in vivo, Echinochloa crusgalli; settings: paddy pot, submerged 4 cm, dropped on water surface 10th day after transplantation, 1 kg active ingredient per hectare, evaluated 21st day
Method in brief: as §2

Stellaria media [4] = test: Upland soil treatment (Test Example 2); assay type: in vivo; settings: soil surface treatment next day after sowing, wettable powder, 1 kg active ingredient per hectare, evaluated 21st day after application
Method in brief: (§3)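 Upland soil in pots was sown with weed and crop seeds, covered with about 1 cm soil, and next day sprayed on the surface with wettable-powder formulation at 1 kg active ingredient per hectare. Effects were scored by index on day 21; higher index means stronger weed control, lower index means better crop safety.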

Setaria viridis [5] = test: Upland soil treatment (Test Example 2); assay type: in vivo; settings: soil surface treatment next day after sowing, wettable powder, 1 kg active ingredient per hectare, evaluated 21st day after application
Method in brief: as §3

Digitaria adscendens [6] = test: Upland soil treatment (Test Example 2); assay type: in vivo; settings: soil surface treatment next day after sowing, wettable powder, 1 kg active ingredient per hectare, evaluated 21st day after application
Method in brief: as §3

Chenopodium album [7] = test: Upland soil treatment (Test Example 2); assay type: in vivo; settings: soil surface treatment next day after sowing, wettable powder, 1 kg active ingredient per hectare, evaluated 21st day after application
Method in brief: as §3

Ammannia multiflora = test: Paddy field treatment (Test Example 3); assay type: in vivo; settings: paddy pot, submerged 4 cm, dropped on water surface 10th day after transplantation, 1 kg active ingredient per hectare, evaluated 21st day
Method in brief: as §2

Monochoria vaginalis = test: Paddy field treatment (Test Example 3); assay type: in vivo; settings: paddy pot, submerged 4 cm, dropped on water surface 10th day after transplantation, 1 kg active ingredient per hectare, evaluated 21st day
Method in brief: as §2

Scirpus juncoides = test: Paddy field treatment (Test Example 3); assay type: in vivo; settings: paddy pot, submerged 4 cm, dropped on water surface 10th day after transplantation, 1 kg active ingredient per hectare, evaluated 21st day
Method in brief: as §2

Stellaria media [8] = test: Upland field foliage treatment (Test Example 1); assay type: in vivo; settings: foliage treatment 14th day after sowing, wettable powder, 1 kg active ingredient per hectare, evaluated 21st day after application
Method in brief: as §1

Setaria viridis [9] = test: Upland field foliage treatment (Test Example 1); assay type: in vivo; settings: foliage treatment 14th day after sowing, wettable powder, 1 kg active ingredient per hectare, evaluated 21st day after application
Method in brief: as §1

Digitaria adscendens [10] = test: Upland field foliage treatment (Test Example 1); assay type: in vivo; settings: foliage treatment 14th day after sowing, wettable powder, 1 kg active ingredient per hectare, evaluated 21st day after application
Method in brief: as §1

Chenopodium album [11] = test: Upland field foliage treatment (Test Example 1); assay type: in vivo; settings: foliage treatment 14th day after sowing, wettable powder, 1 kg active ingredient per hectare, evaluated 21st day after application
Method in brief: as §1

soybean (Glycine max) [12] = test: Upland soil treatment (Test Example 2), crop; assay type: in vivo; settings: soil surface treatment next day after sowing, 1 kg active ingredient per hectare, evaluated 21st day, lower index = higher safety
Method in brief: as §3

[13] = system: wheat (Triticum aestivum); test: Upland soil treatment (Test Example 2), crop; assay type: in vivo; settings: soil surface treatment next day after sowing, 1 kg active ingredient per hectare, evaluated 21st day, lower index = higher safety
Method in brief: as §3

Row | Compound | Herbicidal activity Glycine max (soybean (Glycine max) [1]) | Herbicidal activity Triticum aestivum [2] | Herbicidal activity Oryza sativa [3] | Herbicidal activity Echinochloa spp. (Echinochloa spp.) | Herbicidal activity Stellaria media (Stellaria media [4]) | Herbicidal activity Setaria viridis (Setaria viridis [5]) | Herbicidal activity Digitaria adscendens (Digitaria adscendens [6]) | Herbicidal activity Chenopodium album (Chenopodium album [7]) | Herbicidal activity Ammannia multiflora (Ammannia multiflora) | Herbicidal activity Monochoria vaginalis (Monochoria vaginalis) | Herbicidal activity Scirpus juncoides (Scirpus juncoides) | Herbicidal activity Stellaria media (Stellaria media [8]) | Herbicidal activity Setaria viridis (Setaria viridis [9]) | Herbicidal activity Digitaria adscendens (Digitaria adscendens [10]) | Herbicidal activity Chenopodium album (Chenopodium album [11]) | Herbicidal activity Glycine max (soybean (Glycine max) [12]) | Herbicidal activity Triticum aestivum [13]
1 | COC=C(CCn1cc(C)c(-c2ccccc2)n1)C(=O)OC [Compound 47] | 0 (herbicidal effect of not less than 0% by weight and less than 10% by weight) | 0 (herbicidal effect of not less than 0% by weight and less than 10% by weight) | 0 (herbicidal effect of not less than 0% by weight and less than 10% by weight) | 3 (herbicidal effect of not less than 50% by weight and less than 70% by weight) | 3 (herbicidal effect of not less than 50% by weight and less than 70% by weight) | 4 (herbicidal effect of not less than 70% by weight and less than 90% by weight) | 4 (herbicidal effect of not less than 70% by weight and less than 90% by weight) | 4 (herbicidal effect of not less than 70% by weight and less than 90% by weight) | 2 (herbicidal effect of not less than 30% by weight and less than 50% by weight) | 2 (herbicidal effect of not less than 30% by weight and less than 50% by weight) | 3 (herbicidal effect of not less than 50% by weight and less than 70% by weight) | 4 (herbicidal effect of not less than 70% by weight and less than 90% by weight) | 3 (herbicidal effect of not less than 50% by weight and less than 70% by weight) | 3 (herbicidal effect of not less than 50% by weight and less than 70% by weight) | 4 (herbicidal effect of not less than 70% by weight and less than 90% by weight) | 0 (herbicidal effect of not less than 0% by weight and less than 10% by weight) | 0 (herbicidal effect of not less than 0% by weight and less than 10% by weight)
2 | COC=C(Cn1nc(-c2ccccc2)c(Br)c1SC)C(=O)OC [Compound 44] | 0 (herbicidal effect of not less than 0% by weight and less than 10% by weight) | 0 (herbicidal effect of not less than 0% by weight and less than 10% by weight) | 0 (herbicidal effect of not less than 0% by weight and less than 10% by weight) | 3 (herbicidal effect of not less than 50% by weight and less than 70% by weight) | 4 (herbicidal effect of not less than 70% by weight and less than 90% by weight) | 4 (herbicidal effect of not less than 70% by weight and less than 90% by weight) | 4 (herbicidal effect of not less than 70% by weight and less than 90% by weight) | 4 (herbicidal effect of not less than 70% by weight and less than 90% by weight) | 3 (herbicidal effect of not less than 50% by weight and less than 70% by weight) | 3 (herbicidal effect of not less than 50% by weight and less than 70% by weight) | 3 (herbicidal effect of not less than 50% by weight and less than 70% by weight) | 4 (herbicidal effect of not less than 70% by weight and less than 90% by weight) | 4 (herbicidal effect of not less than 70% by weight and less than 90% by weight) | 4 (herbicidal effect of not less than 70% by weight and less than 90% by weight) | 4 (herbicidal effect of not less than 70% by weight and less than 90% by weight) | 0 (herbicidal effect of not less than 0% by weight and less than 10% by weight) | 0 (herbicidal effect of not less than 0% by weight and less than 10% by weight)
3 | COC=C(Cn1nc(-c2ccc(Cl)cc2Cl)c(Br)c1C)C(=O)OC [Compound 30] | 1 (herbicidal effect of not less than 10% by weight and less than 30% by weight) | 0 (herbicidal effect of not less than 0% by weight and less than 10% by weight) | 0 (herbicidal effect of not less than 0% by weight and less than 10% by weight) | 4 (herbicidal effect of not less than 70% by weight and less than 90% by weight) | 4 (herbicidal effect of not less than 70% by weight and less than 90% by weight) | 5 (herbicidal effect of not less than 90% by weight) | 5 (herbicidal effect of not less than 90% by weight) | 4 (herbicidal effect of not less than 70% by weight and less than 90% by weight) | 5 (herbicidal effect of not less than 90% by weight) | 5 (herbicidal effect of not less than 90% by weight) | 4 (herbicidal effect of not less than 70% by weight and less than 90% by weight) | 5 (herbicidal effect of not less than 90% by weight) | 4 (herbicidal effect of not less than 70% by weight and less than 90% by weight) | 5 (herbicidal effect of not less than 90% by weight) | 5 (herbicidal effect of not less than 90% by weight) | 0 (herbicidal effect of not less than 0% by weight and less than 10% by weight) | 0 (herbicidal effect of not less than 0% by weight and less than 10% by weight)
4 | COC=C(Cn1nc(-c2ccccc2)cc1SC)C(=O)OC [Compound 37] | 0 (herbicidal effect of not less than 0% by weight and less than 10% by weight) | 0 (herbicidal effect of not less than 0% by weight and less than 10% by weight) | 0 (herbicidal effect of not less than 0% by weight and less than 10% by weight) | 3 (herbicidal effect of not less than 50% by weight and less than 70% by weight) | 5 (herbicidal effect of not less than 90% by weight) | 5 (herbicidal effect of not less than 90% by weight) | 5 (herbicidal effect of not less than 90% by weight) | 4 (herbicidal effect of not less than 70% by weight and less than 90% by weight) | 3 (herbicidal effect of not less than 50% by weight and less than 70% by weight) | 3 (herbicidal effect of not less than 50% by weight and less than 70% by weight) | 3 (herbicidal effect of not less than 50% by weight and less than 70% by weight) | 5 (herbicidal effect of not less than 90% by weight) | 4 (herbicidal effect of not less than 70% by weight and less than 90% by weight) | 4 (herbicidal effect of not less than 70% by weight and less than 90% by weight) | 5 (herbicidal effect of not less than 90% by weight) | 0 (herbicidal effect of not less than 0% by weight and less than 10% by weight) | 0 (herbicidal effect of not less than 0% by weight and less than 10% by weight)
